Assay results reported in US20160115136A1, “COMPOUNDS, COMPOSITIONS COMPRSING SAME, AND METHODS RELATED THERETO” (UNIVERSITY OF IOWA RESEARCH FOUNDATION, priority 2013, published 2016).
≈ marks a conversion by molar mass, not a printed value. Where “and” joins values, the source holds several entries; their conditions need not be identical. Identical values can stand only once. Like-named read-outs stand apart in the source and are kept apart here.

Tests used:
[1] = tested on: B. subtilis DB104; experiment: Inhibition of bacterial growth (MIC50, absorbance at 600 nm, 24 h)
[2] = molecular target: GR from B. anthracis isozyme 1 (RacE1) (Bacillus anthracis, UniProt A0A6L8PVU3); experiment: biochemical
Sequence of GR from B. anthracis isozyme 1 (RacE1) (A0A6L8PVU3 1-276): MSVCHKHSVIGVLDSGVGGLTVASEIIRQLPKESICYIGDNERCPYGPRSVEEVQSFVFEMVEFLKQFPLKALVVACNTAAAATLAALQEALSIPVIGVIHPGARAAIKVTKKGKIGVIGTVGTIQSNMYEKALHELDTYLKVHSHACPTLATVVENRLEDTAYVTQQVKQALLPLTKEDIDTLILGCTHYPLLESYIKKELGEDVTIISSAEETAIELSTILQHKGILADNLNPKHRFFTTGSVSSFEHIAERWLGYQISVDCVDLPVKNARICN

[3] = molecular target: T1, glutamate racemase isozyme 2 from Bacillus anthracis (RacE2) (Bacillus anthracis, UniProt A0A6L8PKK6); experiment: biochemical; assay type: biochemical
T1 sequence (A0A6L8PKK6 1-269): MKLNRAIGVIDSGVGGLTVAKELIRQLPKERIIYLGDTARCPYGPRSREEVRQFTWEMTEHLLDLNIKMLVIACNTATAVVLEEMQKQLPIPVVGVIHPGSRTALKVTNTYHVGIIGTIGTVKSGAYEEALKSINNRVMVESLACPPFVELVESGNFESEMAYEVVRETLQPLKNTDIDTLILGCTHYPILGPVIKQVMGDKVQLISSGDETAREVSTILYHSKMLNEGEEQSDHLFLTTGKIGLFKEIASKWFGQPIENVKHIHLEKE

[4] = molecular target: GR from F. tularensis (Francisella tularensis, UniProt Q5NFN6); experiment: biochemical
Sequence of GR from F. tularensis (Q5NFN6 1-265): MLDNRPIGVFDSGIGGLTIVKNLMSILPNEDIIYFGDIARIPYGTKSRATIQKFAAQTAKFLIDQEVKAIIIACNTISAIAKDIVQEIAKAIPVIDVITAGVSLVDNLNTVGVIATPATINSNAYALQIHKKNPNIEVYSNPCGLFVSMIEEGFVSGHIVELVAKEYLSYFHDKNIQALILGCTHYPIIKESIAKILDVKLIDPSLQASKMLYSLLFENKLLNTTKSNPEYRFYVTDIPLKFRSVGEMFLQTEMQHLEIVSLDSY

[5] = molecular target: T2, glutamate racemase (GR) from B. subtilis (Bacillus subtilis, UniProt P94556); settings: for Ki: read-out: Ki value
T2 sequence (P94556 whole entry): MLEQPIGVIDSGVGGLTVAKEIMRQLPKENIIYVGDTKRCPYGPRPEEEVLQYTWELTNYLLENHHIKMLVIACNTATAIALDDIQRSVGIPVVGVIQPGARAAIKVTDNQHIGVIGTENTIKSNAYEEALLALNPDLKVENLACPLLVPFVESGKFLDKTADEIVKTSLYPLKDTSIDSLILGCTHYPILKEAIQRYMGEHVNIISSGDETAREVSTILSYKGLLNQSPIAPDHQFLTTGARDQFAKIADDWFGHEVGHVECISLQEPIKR

[6] = molecular target: T2, glutamate racemase (GR) from B. subtilis; experiment: biochemical
[7] = tested on: E. coli Acella; experiment: Inhibition of bacterial growth (MIC50, absorbance at 600 nm, 24 h); settings: for growth inhibition: concentrations <3 mg mL^−1
[8] = tested on: S. aureus ATCC 12600; experiment: as above; settings: for growth inhibition: concentrations <3 mg mL^−1
[9] = tested on: S. aureus; experiment: Cell wall lysis assay (modified CytoTox-Glo, luminescence)
[10] = tested on: glutamate racemase isozyme 2 from Bacillus anthracis (RacE2); experiment: biochemical; assay type: biochemical; settings: FIG. 14, competitive inhibition model
[11] = molecular target: T3, glutamate racemase from H. pylori (Helicobacter pylori, UniProt P56068); assay type: biochemical
T3 sequence (P56068 1-255): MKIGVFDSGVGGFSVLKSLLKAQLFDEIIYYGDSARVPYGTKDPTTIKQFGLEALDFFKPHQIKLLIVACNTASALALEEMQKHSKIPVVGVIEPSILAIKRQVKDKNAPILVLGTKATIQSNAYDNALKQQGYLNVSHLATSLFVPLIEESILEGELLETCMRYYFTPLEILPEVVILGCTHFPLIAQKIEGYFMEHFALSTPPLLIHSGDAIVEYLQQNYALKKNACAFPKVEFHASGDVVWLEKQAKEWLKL

[12] = tested on: B. subtilis; experiment: Cell wall lysis assay (modified CytoTox-Glo, luminescence)
[13] = molecular target: T1, glutamate racemase isozyme 2 from Bacillus anthracis (RacE2); assay type: biochemical; settings: 25° C., pH 8.0
[14] = Staphylococcus aureus, ATCC12600
[15] = Ki converted into binding energy divided by number of non-hydrogen atoms
[16] = from log(Ki) and calculated logP (MarvinSketch)

O=S(=O)(O)c1nc2ccccc2[nH]1 [Compound 2, 1H-benzimidazole-2-sulfonic acid]
MIC50 ([1]; Bacillus subtilis, DB104): 720 ± 60 µg/mL (≈ 3.63 mM)
IC50 [2]: 120 ± 5 µM
IC50 [3]: 40 ± 5 µM
IC50 [4]: 110 ± 12 µM
LE (ligand efficiency) [5]: 0.53 kcal mol^−1 atom^−1
LiPE (lipophilic efficiency) [5]: 5.3
Ki ([5]; GR from B. subtilis): 9 µM
IC50 [6]: 250 ± 20 µM

CCCCNS(=O)(=O)c1ccc2[nH]c(S(=O)(=O)O)nc2c1 [Compound 18, 5-(n-butylsulfamoyl)-1H-benzo[d]imidazole-2-sulfonic acid]
growth inhibition ([7]; E. coli): no significant growth inhibition
MIC50 ([7]; Escherichia coli): > 3000 µg/mL
growth inhibition ([8]; S. aureus): no significant growth inhibition
MIC50 [8, 14]: > 3000 µg/mL
MIC50 ([1]; Bacillus subtilis, DB104): 360 ± 20 µg/mL (≈ 1.08 mM)
LE (ligand efficiency) [5, 15]: 0.30 kcal mol^−1 atom^−1
LiPE (lipophilic efficiency) [5, 16]: 5.0
Ki [6]: 12 ± 3.6 µM

O=C(c1ccccc1)c1ccc2[nH]c(S(=O)(=O)O)nc2c1 [Compound 24]
MIC50 ([1]; Bacillus subtilis, DB104): 140 ± 20 µg/mL (≈ 0.463 mM)
loss in binding affinity versus parent compound [5]: ~100 fold
LE (ligand efficiency) [5, 15]: 0.20 kcal mol^−1 atom^−1
LiPE (lipophilic efficiency) [5, 16]: 1.9
Ki [6]: 830 ± 75 µM

7-fluoro-2-sulfo-1H-benzo[d]imidazole-5-carboxylic acid [Compound 4] [listing 1 of 2 here]
increase in luminescence ([9]; S. aureus, millimolar inhibitor concentration range): ~40%
MIC50 ([7]; E. coli): 1600 ± 200 µg/mL
MIC50 ([8]; S. aureus): 1000 ± 250 µg/mL
MIC50 ([1]; B. subtilis): 260 ± 110 µg/mL
MIC50 value for growth inhibition ([1]; B. subtilis): 260 µg/mL
MIC50 ([1]; B. subtilis, FIG. 15): 1,788 μM and 460 μg/mL
MIC50 value for bacterial growth inhibition ([1]; B. subtilis, FIG. 17): 2000 µM
potency against B. anthracis RacE2 relative to B. subtilis GR [10]: equal potency
IC50 ([11]; best-fit value, Table 5): 102 µM
Hill Slope (best-fit value) ([11]; dose-response fit): −6.498
IC50 ([11]; dose-response inhibition model, FIG. 16): ~100 µM
LogIC50 (best-fit value) ([11]; log of compound concentration in mM): −0.9935
LE (ligand efficiency) [5, 15]: 0.45 kcal mol^−1 atom^−1
Ki [5]: 2.5 µM
EC50 for lysis [12]: 520 µg/mL
increase in luminescence ([12]; low-millimolar range): 400%
EC50 ([12]; read-out: EC50 value of cell lysis, FIG. 17, within the same range as the MIC50): ~2000 µM

CC1(C)S[C@@H]2[C@H](NC(=O)[C@H](N)c3ccccc3)C(=O)N2[C@H]1C(=O)O [ampicillin, reference compound]
luminescence response (cell lysis) ([9]; S. aureus exposed 24 h, control antibiotics, FIG. 23A): dose-dependent increase in luminescence

O=S(=O)(O)c1nc2cc(S(=O)(=O)N3CCOCC3)ccc2[nH]1 [Compound 29, 5-(morpholinosulfonyl)-1H-benzo[d]imidazole-2-sulfonic acid]
growth inhibition ([7]; E. coli): no significant growth inhibition
MIC50 ([7]; Escherichia coli): > 3000 µg/mL
growth inhibition ([8]; S. aureus): no significant growth inhibition
MIC50 [8, 14]: > 3000 µg/mL
MIC50 ([1]; Bacillus subtilis, DB104): 320 ± 10 µg/mL (≈ 0.921 mM)
LE (ligand efficiency) [5, 15]: 0.34 kcal mol^−1 atom^−1
LiPE (lipophilic efficiency) [5, 16]: 6.6
Ki [6]: 6.4 µM

Cc1ccc2[nH]c(S(=O)(=O)O)nc2c1 [Compound 15]
MIC50 ([1]; Bacillus subtilis, DB104): > 3000 µg/mL
LE (ligand efficiency) [5, 15]: 0.46 kcal mol^−1 atom^−1
LiPE (lipophilic efficiency) [5, 16]: 4.4
Ki [6]: 21 ± 5 µM

O=S(=O)(O)c1nc2ccc(Cl)cc2[nH]1 [Compound 26]
MIC50 ([1]; Bacillus subtilis, DB104): > 3000 µg/mL
LE (ligand efficiency) [5, 15]: 0.48 kcal mol^−1 atom^−1
LiPE (lipophilic efficiency) [5, 16]: 4.5
Ki [6]: 13 ± 2.4 µM

7-fluoro-2-sulfo-1H-benzo[d]imidazole-5-carboxylic acid [Compound 4] [listing 2 of 2 here]
Ki [13]: 5.4 ± 2.5 µM
